Experimental data taken from PMC10439028, “SGLT5 is the renal transporter for 1,5-anhydroglucitol, a major player in two rare forms of neutropenia” (Cellular and Molecular Life Sciences: CMLS, 2023).

Biological target: T1, SGLT5-TM (S70N–E71I–L75H) (Homo sapiens, UniProt A0PJK1, E71I/L75H/S70N)
T1 construct: pUB83-hSGLT5-iso2 as well as the various SGLT5 mutants obtained were used to transduce HEK293T cells; expressed in transfected cells; host or cells: HEK293T, lentiviral transduction (pUB83)
Experiment: Inhibition of 10 µM 1,5-AG transport by triple mutant SGLT5-TM (S70N-E71I-L75H)
Assay type: cell-based
Method: The transport experiments to study the specificity of SGLT4 or SGLT5, were performed in the presence of 10 µM U-[^14C + ^12C]-mannose (for SGLT4) or 2-[^3H + ^1H]-1,5-AG (for SGLT5) and increasing concentrations of various sugars tested. The transport experiments to study the inhibition of empagliflozin, dapagliflozin or remogliflozin, on the transport of 1,5-AG by SGLT5 or its variants were performed in the presence of 10 µM 2-[^3H + ^1H]-1,5-AG and increasing concentrations of the various gliflozins tested.
SGLT5 mutants were created using the quick-change site directed mutagenesis method that enables effective mutagenesis without subcloning of the amplified PCR products. Complementary primer pairs carrying the desired replacements (Supplementary Table 3) were designed using an online tool (https://www.agilent.com/store/primerDesignProgram.jsp). The PCR protocol was carried out following the manufacturer instructions regarding the KOD HOT Start polymerase kit (TOYOBO™, Novagen). The amplified DNA was cleaned-up from the reactions constituents using the GeneJET PCR purification Kit (Thermo Scientific™) and the size of the DNA fragment were verified by DNA agarose-gel electrophoresis. After eliminating the parental DNA by digesting the purified DNA with the DpnI restriction enzyme, the DNA fragments containing the appropriate changes were transformed in E. coli NEB Turbo competent cells (C2984H). Once colonies were obtained, plasmid DNA was finally amplified, purified and sequenced to verify that the required changes had been introduced and eliminate any PCR errors. Next, pUB83-hSGLT5-iso2 as well as the various SGLT5 mutants obtained were used to transduce HEK293T cells using the exact same protocol as described above to create model cell lines overexpressing the different SGLT5 transporters.
Supplementary Fig. 7: Substrate specificity of SGLT5 - impact of replacing specific and conserved substrate binding residues in human SGLT5 by the equivalent ones in […]
When shown, the IC50 values are derived from inhibition curves showing the transport activity of 1,5-AG by the indicated SGLT5 mutants. Values show the concentration needed of the various sugars to inhibit by 50% the transport activity of 10 µM 2-[1H+3H]-1,5-AG. When the inhibition was too weak to derive IC50 values, the inhibition of the transport of 1,5-AG with the indicated concentration of the inhibitor-sugar is shown. Of note, despite having a lower […]
µM). These apparently contradictory changes are not necessarily surprising: in the case of enzymes, there are multiple examples of mutations that, at the same time, increase the apparent affinity (decrease the Km) of an enzyme for its substrate while decreasing the Vmax.
Measurement of transport activities and the description of the structures of the various inhibitory sugars used are as in Fig. 3C. Data corresponds to n = 3 in at least 2 independent […]
(1 picture or pasted object on this page, not shown here)

T1 sequence (A0PJK1 whole entry S70N/E71I/L75H): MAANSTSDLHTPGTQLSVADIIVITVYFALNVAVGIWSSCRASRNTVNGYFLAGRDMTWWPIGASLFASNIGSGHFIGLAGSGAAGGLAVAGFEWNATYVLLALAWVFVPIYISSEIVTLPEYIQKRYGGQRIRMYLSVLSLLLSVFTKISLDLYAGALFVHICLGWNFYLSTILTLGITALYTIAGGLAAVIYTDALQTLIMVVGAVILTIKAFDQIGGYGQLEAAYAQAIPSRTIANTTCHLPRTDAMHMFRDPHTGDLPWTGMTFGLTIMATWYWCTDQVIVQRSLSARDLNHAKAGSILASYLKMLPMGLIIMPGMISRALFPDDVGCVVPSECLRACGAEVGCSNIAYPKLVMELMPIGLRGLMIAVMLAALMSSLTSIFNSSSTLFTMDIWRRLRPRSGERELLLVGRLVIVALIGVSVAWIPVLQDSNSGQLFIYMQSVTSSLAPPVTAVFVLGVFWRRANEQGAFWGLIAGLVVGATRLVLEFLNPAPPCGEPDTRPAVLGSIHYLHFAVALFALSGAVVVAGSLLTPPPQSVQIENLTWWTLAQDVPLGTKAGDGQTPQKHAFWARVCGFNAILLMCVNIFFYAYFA

Compound	IC50 for 1,5-AG lower than the IC50 for SGLT5-WT (33 µM versus 162 µM) [fold]	inhibition of SGLT5-TM (competition experiments, Supplementary Fig. 7)	loss of affinity of SGLT5-TM (versus wild-type SGLT5, competition experiments, Supplementary Fig. 7)
OC[C@H]1OC[C@H](O)[C@@H](O)[C@@H]1O [1,5-AG, 1,5-anhydroglucitol]	5	still being inhibited	–
OC[C@H]1OC(O)[C@@H](O)[C@@H](O)[C@@H]1O (stereo partly drawn) [Mannose, mannose]	–	–	tenfold
